# From PubChem BioAssay AID330 (DTP/NCI, 2004)
# Several values for one entry are separate records, joined by “and”; a condition that tells them apart may be missing. Identical values can stand only once. Inconclusive results and toxic doses are left out.
# System: P388 leukemia ip, CD2F1 mice, survival T/C
# Test: NCI In Vivo Anticancer Drug Screen. Data for tumor model P388 Leukemia (intraperitoneal) in CD2F1 (CDF1) mice
# Settings: endpoint: median survival time, higher = longer survival
# Summary of the method: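 Mice carrying the transplanted tumor received test compound or vehicle. Survival was recorded in each group, and the value is the treated-group measurement divided by that of the vehicle-treated control group.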
# [1] = dose: 100.0 mg/kg/injection, schedule: Q04DX003 (ip), vehicle: saline with Tween-80
structure (smiles),measurement,setting,value
O=C(CCl)N1c2ccccc2Sc2ccccc21,T/C,"dose: 12.5 mg/kg/injection, schedule: Q01DX009 (ip), vehicle: water",105 % of control
same,T/C,"dose: 25.0 mg/kg/injection, schedule: Q01DX009 (ip), vehicle: water",100 % of control
same,T/C,"dose: 50.0 mg/kg/injection, schedule: Q01DX009 (ip), vehicle: water",107 % of control
same,T/C,"dose: 100.0 mg/kg/injection, schedule: Q01DX009 (ip), vehicle: water",111 % of control
same,T/C,"dose: 200.0 mg/kg/injection, schedule: Q01DX009 (ip), vehicle: water",114 % of control
c1ccc(C2SCC3(CCCCC3)CS2)cc1,T/C,"dose: 25.0 mg/kg/injection, schedule: Q01DX005 (ip), vehicle: saline with Tween-80",98 % of control
same,T/C,"dose: 50.0 mg/kg/injection, schedule: Q01DX001 (ip), vehicle: saline with Tween-80",101 % of control
same,T/C,"dose: 50.0 mg/kg/injection, schedule: Q01DX005 (ip), vehicle: saline with Tween-80",100 % of control
same,T/C,"dose: 100.0 mg/kg/injection, schedule: Q01DX001 (ip), vehicle: saline with Tween-80",101 % of control
same,T/C,"dose: 100.0 mg/kg/injection, schedule: Q01DX005 (ip), vehicle: saline with Tween-80",100 % of control
same,T/C,"dose: 200.0 mg/kg/injection, schedule: Q01DX001 (ip), vehicle: saline with Tween-80",94 % of control
same,T/C,"dose: 200.0 mg/kg/injection, schedule: Q01DX005 (ip), vehicle: saline with Tween-80",98 % of control
same,T/C,"dose: 400.0 mg/kg/injection, schedule: Q01DX001 (ip), vehicle: saline with Tween-80",88 % of control
COc1cc(NC(C)CCCN)c2ncccc2c1 (stereo not given),T/C,"dose: 12.5 mg/kg/injection, schedule: Q01DX009 (ip), vehicle: saline sonified",118 % of control
same,T/C,"dose: 25.0 mg/kg/injection, schedule: Q01DX009 (ip), vehicle: saline sonified",109 % of control
same,T/C,"dose: 50.0 mg/kg/injection, schedule: Q01DX009 (ip), vehicle: saline sonified",90 % of control
Clc1ncnc2c1ncn2C1CCCCO1 (stereo not given),T/C,"dose: 50.0 mg/kg/injection, schedule: Q04DX003 (ip), vehicle: saline with Tween-80",104 % of control
same,T/C,"dose: 100.0 mg/kg/injection, schedule: Q01DX009 (ip), vehicle: other",95 % of control
same,T/C,[1],100 % of control
same,T/C,"dose: 200.0 mg/kg/injection, schedule: Q01DX009 (ip), vehicle: other",95 % of control
same,T/C,"dose: 200.0 mg/kg/injection, schedule: Q04DX003 (ip), vehicle: saline with Tween-80",100 % of control
same,T/C,"dose: 400.0 mg/kg/injection, schedule: Q04DX003 (ip), vehicle: saline with Tween-80",100 % of control
C=C(C)C12CC(C)C34OC5(OC1C3C1OC1(CO)C(O)C1(O)C(OC(=O)c3ccccc3)C(C)C(C(C)CCCCCCC5O)C14)O2 (stereo not given),T/C,"dose: 1.9 micrograms/kg/injection, schedule: Q01DX009 (ip), vehicle: distilled water + alcohol",102 % of control
same,T/C,"dose: 3.8 micrograms/kg/injection, schedule: Q01DX009 (ip), vehicle: distilled water + alcohol",115 % of control
same,T/C,"dose: 7.5 micrograms/kg/injection, schedule: Q01DX009 (ip), vehicle: distilled water + alcohol",120 % of control
same,T/C,"dose: 30.0 micrograms/kg/injection, schedule: Q01DX009 (ip), vehicle: distilled water + alcohol",152 % of control
Cc1c2cc[n+](C)c(C)c2cc2c1[nH]c1ccccc12,T/C,"dose: 1.56 mg/kg/injection, schedule: Q04DX002 (ip), vehicle: water",100 % of control
same,T/C,"dose: 3.12 mg/kg/injection, schedule: Q04DX002 (ip), vehicle: water",115 % of control
same,T/C,"dose: 6.25 mg/kg/injection, schedule: Q04DX002 (ip), vehicle: water",117 % of control
same,T/C,"dose: 10.0 mg/kg/injection, schedule: Q04DX002 (ip), vehicle: water",115 % of control
same,T/C,"dose: 12.5 mg/kg/injection, schedule: Q04DX002 (ip), vehicle: water",118 % of control
same,T/C,"dose: 20.0 mg/kg/injection, schedule: Q04DX002 (ip), vehicle: water",115 % of control
same,T/C,"dose: 25.0 mg/kg/injection, schedule: Q04DX002 (ip), vehicle: water",115 % of control
same,T/C,"dose: 40.0 mg/kg/injection, schedule: Q04DX002 (ip), vehicle: water",115 % of control
same,T/C,"dose: 50.0 mg/kg/injection, schedule: Q04DX002 (ip), vehicle: water",106 % of control
COC(=O)C(CCC1CCCCN1)(c1ccccc1)c1ccccc1 (stereo not given),T/C,"dose: 25.0 mg/kg/injection, schedule: Q04DX003 (ip), vehicle: saline with Tween-80",120 % of control
same,T/C,"dose: 66.0 mg/kg/injection, schedule: Q04DX003 (ip), vehicle: saline with Tween-80",100 % of control
same,T/C,[1],150 % of control and 158 % of control
O=C1SC(c2ccccc2)(c2ccccc2)c2cscc21,T/C,"dose: 25.0 mg/kg/injection, schedule: Q01DX009 (ip), vehicle: saline with Tween-80",92 % of control
same,T/C,"dose: 50.0 mg/kg/injection, schedule: Q01DX009 (ip), vehicle: saline with Tween-80",94 % of control
same,T/C,"dose: 100.0 mg/kg/injection, schedule: Q01DX009 (ip), vehicle: saline with Tween-80",99 % of control
same,T/C,"dose: 200.0 mg/kg/injection, schedule: Q01DX009 (ip), vehicle: saline with Tween-80",90 % of control
NC(=O)c1cn(C2OC(CO)C(O)C2O)c2ncnc(N)c12 (stereo not given),T/C,"dose: 0.06 mg/kg/injection, schedule: Q03HX024 (ip), vehicle: saline",105 % of control
same,T/C,"dose: 0.13 mg/kg/injection, schedule: Q01DX009 (ip), vehicle: saline",100 % of control
same,T/C,"dose: 0.13 mg/kg/injection, schedule: Q03HX008 (ip), vehicle: saline",111 % of control
same,T/C,"dose: 0.13 mg/kg/injection, schedule: Q03HX016 (ip), vehicle: saline",122 % of control
same,T/C,"dose: 0.13 mg/kg/injection, schedule: Q03HX024 (ip), vehicle: saline",111 % of control
same,T/C,"dose: 0.25 mg/kg/injection, schedule: Q01DX009 (ip), vehicle: saline",111 % of control
same,T/C,"dose: 0.25 mg/kg/injection, schedule: Q03HX008 (ip), vehicle: saline",111 % of control
same,T/C,"dose: 0.25 mg/kg/injection, schedule: Q03HX016 (ip), vehicle: saline",111 % of control
same,T/C,"dose: 0.25 mg/kg/injection, schedule: Q03HX024 (ip), vehicle: saline",111 % of control
same,T/C,"dose: 0.5 mg/kg/injection, schedule: Q01DX005 (ip), vehicle: saline with Tween-80",151 % of control
same,T/C,"dose: 0.5 mg/kg/injection, schedule: Q01DX009 (ip), vehicle: saline",105 % of control
same,T/C,"dose: 0.5 mg/kg/injection, schedule: Q01DX009 (ip), vehicle: suspension in saline",154 % of control
same,T/C,"dose: 0.5 mg/kg/injection, schedule: Q03HX008 (ip), vehicle: saline",111 % of control
same,T/C,"dose: 0.5 mg/kg/injection, schedule: Q03HX016 (ip), vehicle: saline",116 % of control
same,T/C,"dose: 0.5 mg/kg/injection, schedule: Q03HX024 (ip), vehicle: saline",111 % of control
same,T/C,"dose: 0.5 mg/kg/injection, schedule: Q04DX003 (ip), vehicle: saline",105 % of control
same,T/C,"dose: 1.0 mg/kg/injection, schedule: Q01DX001 (ip), vehicle: saline",111 % of control
same,T/C,"dose: 1.0 mg/kg/injection, schedule: Q01DX005 (ip), vehicle: saline with Tween-80",161 % of control
same,T/C,"dose: 1.0 mg/kg/injection, schedule: Q01DX009 (ip), vehicle: saline",111 % of control
same,T/C,"dose: 1.0 mg/kg/injection, schedule: Q01DX009 (ip), vehicle: suspension in saline",154 % of control
same,T/C,"dose: 1.0 mg/kg/injection, schedule: Q03HX008 (ip), vehicle: saline",94 % of control
same,T/C,"dose: 1.0 mg/kg/injection, schedule: Q03HX016 (ip), vehicle: saline",122 % of control
same,T/C,"dose: 1.0 mg/kg/injection, schedule: Q04DX003 (ip), vehicle: saline",116 % of control
same,T/C,"dose: 1.0 mg/kg/injection, schedule: Q08DX002 (ip), vehicle: saline",111 % of control
same,T/C,"dose: 2.0 mg/kg/injection, schedule: Q01DX001 (ip), vehicle: saline",111 % of control
same,T/C,"dose: 2.0 mg/kg/injection, schedule: Q01DX005 (ip), vehicle: saline with Tween-80",169 % of control
same,T/C,"dose: 2.0 mg/kg/injection, schedule: Q01DX009 (ip), vehicle: saline",100 % of control
same,T/C,"dose: 2.0 mg/kg/injection, schedule: Q01DX009 (ip), vehicle: suspension in saline",94 % of control
same,T/C,"dose: 2.0 mg/kg/injection, schedule: Q04DX003 (ip), vehicle: saline",111 % of control
same,T/C,"dose: 2.0 mg/kg/injection, schedule: Q08DX002 (ip), vehicle: saline",111 % of control
same,T/C,"dose: 4.0 mg/kg/injection, schedule: Q01DX001 (ip), vehicle: saline",122 % of control
same,T/C,"dose: 4.0 mg/kg/injection, schedule: Q04DX003 (ip), vehicle: saline",122 % of control and 118 % of control
same,T/C,"dose: 4.0 mg/kg/injection, schedule: Q08DX002 (ip), vehicle: saline",116 % of control
same,T/C,"dose: 8.0 mg/kg/injection, schedule: Q01DX001 (ip), vehicle: saline",111 % of control
same,T/C,"dose: 8.0 mg/kg/injection, schedule: Q08DX002 (ip), vehicle: saline",116 % of control
Cc1nc2c(cnn2C)c(=O)n1-c1cccc(Cl)c1,T/C,"dose: 50.0 mg/kg/injection, schedule: Q01DX005 (ip), vehicle: Klucel (hydroxypropylcellulose) (HPC)",98 % of control
same,T/C,"dose: 100.0 mg/kg/injection, schedule: Q01DX005 (ip), vehicle: Klucel (hydroxypropylcellulose) (HPC)",100 % of control
same,T/C,"dose: 200.0 mg/kg/injection, schedule: Q01DX005 (ip), vehicle: Klucel (hydroxypropylcellulose) (HPC)",87 % of control
